In one series the test system is first-line advanced HCC. Conditions: first-line advanced HCC patients treated with sorafenib; 95% CI (2.6, 3.6); cited from earlier work.
Series [1] is described as follows: Phase I dose escalation/expanded cohort study of oral foretinib in HCC patients: safety, dose-limiting toxicities, maximum tolerated dose. Conditions: human, in vivo. Here is the method: Each treatment cycle will consist of 21 consecutive days. Subjects enrolled in this study will receive oral foretinib administered once daily. Blood samples for PK analysis will be obtained before and after dosing on Days 1 and 15 of Treatment Period 1 in both the Dose-Escalation and Expanded Cohort Phases. For subjects in the Expanded Cohort Phase, no dose will be administered on Days 2 and 3 of Treatment Period 1 to allow the pharmacokinetics of foretinib to be assessed over a 72 hour interval after the first dose. Subjects will continue to receive study drug until disease progression or withdrawal from study because of unacceptable toxicity or other reasons (e.g., withdrawal of consent, noncompliance). Disease progression is defined as objective disease progression according to mRECIST and/or clinical progression (e.g. emergence of significant new disease-related symptoms and/or significant deterioration of pre-existing disease-related symptoms requiring treatment; or deterioration of ECOG performance status by 2 units—see Appendix 3). For the purpose of the final analysis, the duration of the study is planned to be 2 years after enrollment is completed.
Patients with measurable unresectable/metastatic HCC, no prior sorafenib or other multi-kinase inhibitors, ECOG PS 0-1, adequate organ function and Child-Pugh grade A are eligible for enrolment. […]

Series [2] relates to unresectable/metastatic HCC. The series can be described thus: Antitumour activity (time to progression by modified RECIST) in patients dosed at the maximum tolerated dose. The class given is in vivo, human. Particulars: 38 evaluable patients at the maximum tolerated dose (30 mg OD); 95% confidence intervals (2.8, not achieved). An excerpt: To enable a more accurate description of the potential clinical benefit of foretinib in patients with HCC, the method of tumor evaluation was changed to incorporate the mRECIST criteria for HCC as proposed by Llovet et al (Llovet, et al. 2008 supra) and further described by Lencioni & Llovet (Lencioni & Llovet Modified RECIST (mRECIST) Assessment for Hepatocellular Carcinoma. Seminars in Liver Disease. 2010; 30:52-60) in addition to the standard RECIST assessment.
The primary endpoint for assessing antitumor activity will be response rate (CR+PR) according to mRECIST (Lencioni, 2010), assessed by independent, central, radiological review, in subjects with advanced (unresectable and/or metastatic) HCC treated with foretinib at the maximum tolerated dose. […]
Tumor response for subjects with measurable lesions should be assessed routinely as specified in the table below. Serial CT-scans (preferred) or MRI will be evaluated for response (CR or PR) and SD according to mRECIST (Lecioni, 2010) and RECIST 1.0 (Therasse, et al. New guidelines to evaluate the response to treatment in solid tumors. European Organization for Research and Treatment of Cancer, National Cancer Institute of the United States, National Cancer Institute of Canada. J Natl Cancer Inst. 2000; 92:205-16.). […]

The text below walks through data of patent publication US20130252956A1, “METHODS OF TREATING CANCER” (priority 2010, published 2013).

Each structure is given as a SMILES string.

With `CNC(=O)c1cc(Oc2ccc(NC(=O)Nc3ccc(Cl)c(C(F)(F)F)c3)cc2)ccn1` [sorafenib, 4-[4-[[4-chloro-3-(trifluoromethyl)phenyl]carbamoylamino]phenoxy]-N-methyl-pyridine-2-carboxamide], the “Median time to progression” value in the series with first-line advanced HCC is 2.8 months.
On to `COc1cc2c(Oc3ccc(NC(=O)C4(C(=O)Nc5ccc(F)cc5)CC4)cc3F)ccnc2cc1OCCCN1CCOCC1` [foretinib, N^1-{3-fluoro-4-[(6-(methyloxy)-7-{[3-(4-morpholinyl)propyl]oxy}-4-quinolinyl)oxy]phenyl}-N^1-(4-fluorophenyl)-1,1-cyclopropanedicarboxamide], for which, in series [1], the Dose-limiting toxicities entry was “no dose limiting toxicities were observed” and the “Dose-limiting toxicities (renal failure, proteinuria), patients affected” value was 2/6. Further, the “Median time-to-progression using modified-RECIST” value in series [2] was 4.5 months.
